Experiments:
Type in all cases: in vivo, human
RA patients [1] = assay: Plasma PCSK9 concentration (ELISA), Study 4; conditions: for PCSK9 level, 4 weeks CFB: 4 weeks change from baseline
Method: (§1) Randomized double-blind, placebo-controlled add on study in subjects with active RA who have an inadequate response to MTX monotherapy, in combination with methotrexate, administered for 4 weeks in the treatment of subjects with active rheumatoid arthritis who have an inadequate response to methotrexate alone.
(§2) Compound 1 (dosed as a [Compound 1:HCl:3H2O]) capsules administered orally in 30 mg, 75 mg, 150 mg, or 300 mg doses per day for 4 weeks.
Plasma PCSK9 concentration was determined using a commercial available ELISA kit from R&D systems (614 McKinley Place NE, Minneapolis, Minn. 55413, USA) according to manufacturer's instruction. Catalogue number DPC900, lot number used: 321050.

[2] = test system: Subjects With Active Crohn's Disease; assay: Atherogenic index, Study 5 (Crohn's disease); conditions: for Atherogenic index Mean CFB - 10 weeks results / Atherogenic index Mean percentage CFB - 10 weeks results / Atherogenic index Median CFB - 10 weeks results: 200 mg q.d.
From the text: As used herein, the term ‘atherogenic index’ refers to
This is a double-blind, randomized, placebo-controlled, multi-centre Phase 2 study to investigate the efficacy and safety of Compound 1 administered once daily for the treatment of active CD with evidence of mucosal ulceration. The pharmacokinetics (including a PK substudy) and pharmacodynamics of Compound 1 and metabolite in CD will also be characterised.
A total of 180 eligible subjects will be randomized to receive Compound 1 or placebo in addition to their stable background treatment (eg, corticosteroids, aminosalicylates, or CD-related antibiotics). The study will consist of 2 parts, with total treatment duration of 20 weeks. Randomization in Part 1 will be stratified according the subject's previous anti-TNF exposure/response, CRP level at Screening, and oral corticosteroid use at visit Day −1.
After the first 10 weeks of treatment in Part 1, patients will be re-randomized for Part 2 as shown in the diagram below and will be stratified according to the subject's clinical response, previous anti-TNF exposure/response, and oral corticosteroid use at visit Day −1.
The atherogenic index has been identified to be a good predictor of cardiovascular disorders risks and is calculated as follows: […]

RA patients [3] = assay: Triglycerides level (Selectra autoanalyzer), Study 4; conditions: for Triglycerides level, 4 weeks CFB: 4 weeks change from baseline
Method: as §1, §2
Triglycerides, [HDL] cholesterol, and plasma cholesterol were measured on the Selectra autoanalyzer (Sopachem BV, 44-RI Straat 33, 4051 AP Ochten, The Netherlands). All assays were commercially available from DiaSys Diagnostic Systems GmbH, Alte Strasse 9, 65558 Holzheim, Germany.

RA patients [4] = assay: CRP analysis (immunoturbidimetric assay), Study 2; conditions: 50 mg q.d.
Method: Double-blind, placebo-controlled, monotherapy study in subjects with moderately to severely active RA who have an inadequate response to methotrexate (MTX) (oral or parenteral).
Twelve weeks of treatment with Compound 1 (dosed as a [Compound 1:HCl:3H2O]) at 50 mg, 100 mg, or 200 mg q.d.; or placebo. At Week 12, all subjects on placebo and the subjects on the 50 mg dose who have not achieved 20% improvement in swollen joint count (SJC66) and tender joint count (TJC68) will be assigned to 100 mg q.d. in a blinded fashion and will continue treatment until Week 24. Subjects in the other groups will maintain their randomized treatment until Week 24.
The determination of CRP is made using Immunoturbidimetric assay for the in vitro quantitative determination of CRP in human serum and plasma on Roche/Hitachi cobas c systems, wherein human CRP agglutinates with latex particles coated with monoclonal anti-CRP antibodies. The aggregates are determined turbidimetrically (Eda et al., 1998; Price et al., 1987).
Human serum and plasma samples [CRP] determination was done on a Roche/Hitachi Cobas c 301 c 501/502 system which automatically calculate the analyte concentration of each sample. Samples containing precipitates are centrifuged before performing the assay.
The Hommel-corrected p-value for the pairwise comparisons of each group with placebo is shown. […]

[5] = 200 mg q.d. continued week 10 to 20, week 2
[6] = 200 mg q.d. continued week 10 to 20, week 4
[7] = 200 mg q.d. continued week 10 to 20, week 6
[8] = 200 mg q.d. continued week 10 to 20, week 10
[9] = 200 mg q.d. continued week 10 to 20, week 12
[10] = 200 mg q.d. continued week 10 to 20, week 16
[11] = 200 mg q.d. continued week 10 to 20, week 20
[12] = 200 mg q.d. week 0 to 10, to 100 mg q.d. week 10 to 20, week 2
[13] = 200 mg q.d. week 0 to 10, to 100 mg q.d. week 10 to 20, week 4
[14] = 200 mg q.d. week 0 to 10, to 100 mg q.d. week 10 to 20, week 6
[15] = 200 mg q.d. week 0 to 10, to 100 mg q.d. week 10 to 20, week 10
[16] = 200 mg q.d. week 0 to 10, to 100 mg q.d. week 10 to 20, week 12
[17] = 200 mg q.d. week 0 to 10, to 100 mg q.d. week 10 to 20, week 16
[18] = 200 mg q.d. week 0 to 10, to 100 mg q.d. week 10 to 20, week 20
[19] = 200 mg q.d. week 0 to 10, to placebo week 10 to 20, week 2
[20] = 200 mg q.d. week 0 to 10, to placebo week 10 to 20, week 4
[21] = 200 mg q.d. week 0 to 10, to placebo week 10 to 20, week 6
[22] = 200 mg q.d. week 0 to 10, to placebo week 10 to 20, week 10
[23] = 200 mg q.d. week 0 to 10, to placebo week 10 to 20, week 12
[24] = 200 mg q.d. week 0 to 10, to placebo week 10 to 20, week 16
[25] = 200 mg q.d. week 0 to 10, to placebo week 10 to 20, week 20
[26] = placebo week 0 to 10, to 100 mg q.d. week 10 to 20, week 12
[27] = placebo week 0 to 10, to 100 mg q.d. week 10 to 20, week 16
[28] = placebo week 0 to 10, to 100 mg q.d. week 10 to 20, week 20

## O=C(Nc1nc2cccc(-c3ccc(CN4CCS(=O)(=O)CC4)cc3)n2n1)C1CC1 [Compound 1, cyclopropanecarboxylic acid {5-[4-(1,1-dioxo-thiomorpholin-4-ylmethyl)-phenyl]-[1,2,4]triazolo[1,5-a]pyridin-2yl}-amide]
RA patients [1]; 30 mg q.d.
  PCSK9 level, 4 weeks CFB: 6.8%
  PCSK9 level, Baseline: 282.1 ng/mL
  PCSK9 level, week 4: 296.9 ng/mL
RA patients [1]; 75 mg q.d.
  PCSK9 level, 4 weeks CFB: 11.4%
  PCSK9 level, Baseline: 277.0 ng/mL
  PCSK9 level, week 4: 292.4 ng/mL
RA patients [1]; 150 mg q.d.
  PCSK9 level, 4 weeks CFB: 11.6%
  PCSK9 level, Baseline: 264.4 ng/mL
  PCSK9 level, week 4: 294.6 ng/mL
RA patients [1]; 300 mg q.d.
  PCSK9 level, 4 weeks CFB: 10.4%
  PCSK9 level, Baseline: 261.7 ng/mL
  PCSK9 level, week 4: 291.2 ng/mL
[2]; [5]
  Atherogenic index Mean percentage CFB - 20 weeks results: −6.93%
  Atherogenic index Median CFB - 20 weeks results: -0.25 mmol/L
[2]; [6]
  Atherogenic index Mean percentage CFB - 20 weeks results: −6.67%
  Atherogenic index Median CFB - 20 weeks results: -0.21 mmol/L
[2]; [7]
  Atherogenic index Mean percentage CFB - 20 weeks results: −8.51%
  Atherogenic index Median CFB - 20 weeks results: -0.22 mmol/L
[2]; [8]
  Atherogenic index Mean percentage CFB - 20 weeks results: −3.49%
  Atherogenic index Median CFB - 20 weeks results: -0.13 mmol/L
[2]; [9]
  Atherogenic index Mean percentage CFB - 20 weeks results: −1.27%
  Atherogenic index Median CFB - 20 weeks results: -0.13 mmol/L
[2]; [10]
  Atherogenic index Mean percentage CFB - 20 weeks results: −0.22%
  Atherogenic index Median CFB - 20 weeks results: -0.06 mmol/L
[2]; [11]
  Atherogenic index Mean percentage CFB - 20 weeks results: 3.38%
  Atherogenic index Median CFB - 20 weeks results: 0.01 mmol/L
[2]; [12]
  Atherogenic index Mean percentage CFB - 20 weeks results: −12.02%
  Atherogenic index Median CFB - 20 weeks results: -0.37 mmol/L
[2]; [13]
  Atherogenic index Mean percentage CFB - 20 weeks results: −12.95%
  Atherogenic index Median CFB - 20 weeks results: -0.38 mmol/L
[2]; [14]
  Atherogenic index Mean percentage CFB - 20 weeks results: −13.82%
  Atherogenic index Median CFB - 20 weeks results: -0.48 mmol/L
[2]; [15]
  Atherogenic index Mean percentage CFB - 20 weeks results: −11.54%
  Atherogenic index Median CFB - 20 weeks results: -0.48 mmol/L
[2]; [16]
  Atherogenic index Mean percentage CFB - 20 weeks results: −5.12%
  Atherogenic index Median CFB - 20 weeks results: -0.25 mmol/L
[2]; [17]
  Atherogenic index Mean percentage CFB - 20 weeks results: −4.54%
  Atherogenic index Median CFB - 20 weeks results: -0.15 mmol/L
[2]; [18]
  Atherogenic index Mean percentage CFB - 20 weeks results: −8.14%
  Atherogenic index Median CFB - 20 weeks results: -0.39 mmol/L
[2]; [19]
  Atherogenic index Mean percentage CFB - 20 weeks results: −7.38%
  Atherogenic index Median CFB - 20 weeks results: -0.31 mmol/L
[2]; [20]
  Atherogenic index Mean percentage CFB - 20 weeks results: −10.10%
  Atherogenic index Median CFB - 20 weeks results: -0.29 mmol/L
[2]; [21]
  Atherogenic index Mean percentage CFB - 20 weeks results: −2.55%
  Atherogenic index Median CFB - 20 weeks results: -0.14 mmol/L
[2]; [22]
  Atherogenic index Mean percentage CFB - 20 weeks results: −5.14%
  Atherogenic index Median CFB - 20 weeks results: -0.19 mmol/L
[2]; [23]
  Atherogenic index Mean percentage CFB - 20 weeks results: 9.34%
  Atherogenic index Median CFB - 20 weeks results: 0.14 mmol/L
[2]; [24]
  Atherogenic index Mean percentage CFB - 20 weeks results: 19.14%
  Atherogenic index Median CFB - 20 weeks results: 0.35 mmol/L
[2]; [25]
  Atherogenic index Mean percentage CFB - 20 weeks results: 19.82%
  Atherogenic index Median CFB - 20 weeks results: 0.38 mmol/L
[2]; week 2
  Atherogenic index Mean CFB - 10 weeks results: -0.31 mmol/L
  Atherogenic index Mean percentage CFB - 10 weeks results: −8.20%
  Atherogenic index Median CFB - 10 weeks results: -0.31 mmol/L
[2]; week 4
  Atherogenic index Mean CFB - 10 weeks results: -0.33 mmol/L
  Atherogenic index Mean percentage CFB - 10 weeks results: −8.79%
  Atherogenic index Median CFB - 10 weeks results: -0.28 mmol/L
[2]; week 6
  Atherogenic index Mean CFB - 10 weeks results: -0.32 mmol/L
  Atherogenic index Mean percentage CFB - 10 weeks results: −8.69%
  Atherogenic index Median CFB - 10 weeks results: -0.29 mmol/L
[2]; week 10
  Atherogenic index Mean CFB - 10 weeks results: -0.25 mmol/L
  Atherogenic index Mean percentage CFB - 10 weeks results: −5.98%
  Atherogenic index Median CFB - 10 weeks results: -0.21 mmol/L
[2]; [26]
  Atherogenic index Mean percentage CFB - 20 weeks results: 0.84%
  Atherogenic index Median CFB - 20 weeks results: -0.10 mmol/L
[2]; [27]
  Atherogenic index Mean percentage CFB - 20 weeks results: −0.97%
  Atherogenic index Median CFB - 20 weeks results: -0.25 mmol/L
[2]; [28]
  Atherogenic index Mean percentage CFB - 20 weeks results: 3.17%
  Atherogenic index Median CFB - 20 weeks results: -0.10 mmol/L
RA patients [3]; 30 mg q.d.
  Triglycerides level, 4 weeks CFB: 51.7%
  Triglycerides level, Baseline: 1.2 mM
  Triglycerides level, week 4: 1.7 mM
RA patients [3]; 75 mg q.d.
  Triglycerides level, 4 weeks CFB: 6.6%
  Triglycerides level, Baseline: 1 mM
  Triglycerides level, week 4: 1.1 mM
RA patients [3]; 150 mg q.d.
  Triglycerides level, 4 weeks CFB: 93.6%
  Triglycerides level, Baseline: 1.4 mM
  Triglycerides level, week 4: 2.1 mM
RA patients [3]; 300 mg q.d.
  Triglycerides level, 4 weeks CFB: 23.3%
  Triglycerides level, Baseline: 1.3 mM
  Triglycerides level, week 4: 1.4 mM
RA patients [4]; week 1
  CRP mean CFB (LOCF): -3.70 mg/L
RA patients [4]; week 12
  CRP mean CFB (LOCF): -4.43 mg/L

Source: patent US10376520B2, “Methods for the treatment of cardiovascular disorders” (Galapagos NV, priority 2015, dated 2019)
